Source: ChEMBL document CHEMBL4513161, “CO-ADD screening of MMV (CH) - Pandemic Response Box” (2021)
In brackets after ≈: the same amount, converted by molar mass.

Legend:
HEK293 = experiment: cells; assay type: functional, Homo sapiens, ATCC CRL1573; details: ASSAY_TEST Inhibition of Cell Viability, detection method Resazurin, Fluorescence (ex560/em590), MEDIA DMEM with 10% FBS, plate type 384well, TC, CORNING #3712, time 18 hr, read-out: CC50
Pseudomonas aeruginosa [1] = experiment: Antibacterial activity against Pseudomonas aeruginosa PAO397 [PAO1 d(mexAB-oprM) d(mexCD-oprJ) d(mexEF-oprN) d(mexJKL) d(mexXY) d(opmH)] (CO-ADD:GN_211); MIC in CAMBH media using NBS plates, by OD(600); assay type: functional; details: ASSAY_TEST Inhibition of Bacterial Growth, detection method Absorption (OD600), MEDIA CAMHB, plate type 384well, CORNING #3640, time 18 hr
Staphylococcus aureus = experiment: microbe, parasite or virus in culture; details: ATCC 43300, 18 h, ASSAY_TEST Inhibition of Bacterial Growth, detection method Absorption (OD600), MEDIA CAMHB, plate type 384well, NBS, CORNING #3640
Escherichia coli = experiment: microbe, parasite or virus in culture; details: ATCC 25922, 18 h, ASSAY_TEST Inhibition of Bacterial Growth, detection method Absorption (OD600), MEDIA CAMHB, plate type 384well, NBS, CORNING #3640
Klebsiella pneumoniae = experiment: microbe, parasite or virus in culture; details: ATCC 700603, 18 h, ASSAY_TEST Inhibition of Bacterial Growth, detection method Absorption (OD600), MEDIA CAMHB, plate type 384well, NBS, CORNING #3640
Pseudomonas aeruginosa [2] = experiment: microbe, parasite or virus in culture; details: ATCC 27853, 18 h, ASSAY_TEST Inhibition of Bacterial Growth, detection method Absorption (OD600), MEDIA CAMHB, plate type 384well, NBS, CORNING #3640
Acinetobacter baumannii = experiment: microbe, parasite or virus in culture; details: ATCC 19606, 18 h, ASSAY_TEST Inhibition of Bacterial Growth, detection method Absorption (OD600), MEDIA CAMHB, plate type 384well, NBS, CORNING #3640
Candida albicans = experiment: microbe, parasite or virus in culture; details: ATCC 90028, ASSAY_TEST Inhibition of Fungal Growth, detection method Absorption (OD530), plate type 384well, NBS, CORNING #3640
[3] = Homo sapiens, ATCC CRL1573, HEK293

SMILES | CC50 (HEK293; [3]) | MIC (Pseudomonas aeruginosa [1]) | MIC (Cryptococcus neoformans) | MIC (Staphylococcus aureus) | MIC (Escherichia coli) | MIC (Klebsiella pneumoniae) | MIC (Pseudomonas aeruginosa [2]) | MIC (Acinetobacter baumannii) | MIC (Candida albicans) | CC50 (HEK293)
CC(C)CCN1C(=O)C(C2=NS(=O)(=O)c3cc(NS(C)(=O)=O)ccc3N2)=C(O)[C@@H]2[C@H]3CC[C@H](C3)[C@@H]21 | > 20 µM | > 20 µM | > 20 µM | > 20 µM | > 20 µM | > 20 µM | > 20 µM | > 20 µM | > 20 µM | 
Cc1cc(CCOc2c(C)cc(-c3nnn(C)n3)cc2C)on1 | > 20 µM | > 20 µM | > 20 µM | > 20 µM | > 20 µM | > 20 µM | > 20 µM | > 20 µM | > 20 µM | 
C[C@@H](NC(=O)c1cccc(-c2cnc(-c3cc4ccccc4cn3)[nH]2)c1)c1ccc(F)cc1 | 10.8 µM | > 20 µM | > 20 µM | > 20 µM | > 20 µM | > 20 µM | > 20 µM | > 20 µM | > 20 µM | 
N=c1n(CCN2CCCCC2)c2ccccc2n1CC(O)COc1ccc(Cl)cc1Cl (centres undefined) | 6.89 µM |  | > 20 µM | > 20 µM | > 20 µM | > 20 µM |  | > 20 µM | > 20 µM | 
N[C@H]1CCC[C@H]1C(=O)O | > 20 µM | > 20 µM | > 20 µM | > 20 µM | > 20 µM | > 20 µM | > 20 µM | > 20 µM | > 20 µM | 
CCN(CC)CCn1c(=N)n(CC(O)COc2ccc(Cl)cc2Cl)c2ccccc21 (centres undefined) | 4.49 µM |  | > 20 µM | > 20 µM | > 20 µM | > 20 µM | 20 µM (≈ 9.03 µg/mL) | > 20 µM | > 20 µM | 
COc1ccc(C(C)(C)C)cc1NC(=O)C(=O)c1ccc(OCCN2CCOCC2)c2ccccc12 | > 20 µM | > 20 µM | > 20 µM | > 20 µM | > 20 µM | > 20 µM | > 20 µM | > 20 µM | > 20 µM | 
O=C1C=C(c2ccccc2)S(=O)(=O)c2ccccc21 | 4.03 µM | > 20 µM | 5 µM (≈ 1.35 µg/mL) | > 20 µM | > 20 µM | > 20 µM | > 20 µM | > 20 µM | 5 µM (≈ 1.35 µg/mL) | 
Cn1c2ccccc2c(=O)c2c(O)cccc21 | > 20 µM | > 20 µM | > 20 µM | > 20 µM | > 20 µM | > 20 µM | > 20 µM | > 20 µM | > 20 µM | 
CN(O)C(=O)c1cc2c(CN3CCC[C@H]3C(N)=O)cn(Cc3ccc(F)cc3)c2cn1 | > 20 µM | > 20 µM | > 20 µM | > 20 µM | > 20 µM | > 20 µM | > 20 µM | > 20 µM | > 20 µM | 
COc1cc(Cc2cnc(N)nc2N)c2c(c1OC)OC(C1CC1)C=C2 (centres undefined) | > 20 µM | 5 µM (≈ 1.77 µg/mL) | > 20 µM | 2.5 µM (≈ 0.886 µg/mL) | > 20 µM | > 20 µM | > 20 µM | > 20 µM | > 20 µM | 
CN(C)CCCNC(=O)c1ccc(-c2cc(O)c3ncccc3c2)cc1 | 16.6 µM | > 20 µM | > 20 µM | > 20 µM | > 20 µM | > 20 µM | > 20 µM | > 20 µM | > 20 µM | 
O=C(CSc1nnc(Br)n1-c1ccc(C2CC2)c2ccccc12)Nc1ccc(C(=O)O)cc1Cl | > 20 µM | > 20 µM | > 20 µM | > 20 µM | > 20 µM | > 20 µM | > 20 µM | > 20 µM | > 20 µM | 
CN1c2ccc(Cl)cc2N(c2ccccc2)C(=O)c2cn(Cc3ccc(CN4CCOCC4)cc3)nc21 | > 20 µM | > 20 µM | > 20 µM | > 20 µM | > 20 µM | > 20 µM | > 20 µM | > 20 µM | > 20 µM | 
CN1C(=O)C(c2ccccc2)C(=O)N(c2ccccc2)c2cc(C(F)(F)F)ccc21 (centres undefined) | > 20 µM | > 20 µM | > 20 µM | > 20 µM | > 20 µM | > 20 µM | > 20 µM | > 20 µM | > 20 µM | 
O=C(O)COc1cccc2c1CC[C@](O)(COC(=O)N(c1ccccc1)c1ccccc1)C2 | > 20 µM | > 20 µM | > 20 µM | > 20 µM | > 20 µM | > 20 µM | > 20 µM | > 20 µM | > 20 µM | 
CC(C)(C)NC(=O)[C@@H]1CN(Cc2cnc3occc3c2)CCN1C[C@@H](O)C[C@@H](Cc1ccccc1)C(=O)N[C@H]1c2ccccc2C[C@H]1O | > 20 µM | > 20 µM | > 20 µM | > 20 µM | > 20 µM | > 20 µM | > 20 µM | > 20 µM | > 20 µM | 
O=C(O)C[C@H]1CC[C@H](c2ccc(-c3ccc(Nc4ccc(C(F)(F)F)nc4)cn3)cc2)CC1 | > 20 µM | > 20 µM | > 20 µM | > 20 µM | > 20 µM | > 20 µM | > 20 µM | > 20 µM | > 20 µM | 
CC(Oc1ccc(Cl)cc1Cl)C(=O)NCc1ccc2c(c1)OCO2 (centres undefined) | > 20 µM |  | > 20 µM |  |  |  |  |  |  | 
FC(F)(F)c1cc(C(F)(F)F)c2ccc3nc(-c4nnco4)cn3c2n1 | > 20 µM | > 20 µM | > 20 µM | > 20 µM | > 20 µM | > 20 µM | > 20 µM | > 20 µM | > 20 µM | 
CN(C)CCCOc1ccc(-c2ccc3ncc4c(c3c2)n(C2CCOCC2)c(=O)n4C)cn1 | > 20 µM | > 20 µM | > 20 µM | > 20 µM | > 20 µM | > 20 µM | > 20 µM | > 20 µM | > 20 µM | 
C[Si]1(C)CCN(Cc2cc(-c3ccc(Cl)cc3)n(-c3ccc(Cl)cc3)n2)CC1 | > 20 µM | > 20 µM | > 20 µM | > 20 µM | > 20 µM | > 20 µM | > 20 µM | > 20 µM | > 20 µM | 
Cc1nc(N(C)C(=O)Cc2ccc(-c3ccccn3)cc2)sc1S(N)(=O)=O | > 20 µM | > 20 µM | > 20 µM | > 20 µM | > 20 µM | > 20 µM | > 20 µM | > 20 µM | > 20 µM | 
Nc1nc(F)nc2c1ncn2[C@H]1O[C@@H](CO)[C@H](O)[C@@H]1O | 0.535 µM | > 20 µM | > 20 µM | > 20 µM | > 20 µM | > 20 µM | > 20 µM | > 20 µM | > 20 µM | 
CC1(C)C[C@H]1C(=O)N/C(=C\CCCCSC[C@@H](N)C(=O)O)C(=O)O | > 20 µM | > 20 µM | > 20 µM | > 20 µM | > 20 µM | > 20 µM | > 20 µM | > 20 µM | > 20 µM | 
Clc1ccc(COC(Cn2ccnc2)c2ccc(Cl)cc2Cl)c(Cl)c1 (centres undefined) |  | > 20 µM | 0.625 µM (≈ 0.26 µg/mL) |  |  |  |  |  |  | > 20 µM
NC(=O)C(c1ccccc1)(c1ccccc1)[C@H]1CCCN(CCc2ccc3c(c2)CCO3)C1 | > 20 µM | 20 µM (≈ 8.81 µg/mL) | > 20 µM | > 20 µM | > 20 µM | > 20 µM | > 20 µM | > 20 µM | > 20 µM | 
C=CCN(C(=O)OCc1ccc([N+](=O)[O-])cc1)C1CCN(CC[C@](C)(CN(C)S(=O)(=O)c2ccccc2)c2ccccc2)CC1 | > 20 µM | > 20 µM | > 20 µM | > 20 µM | > 20 µM | > 20 µM | > 20 µM | > 20 µM | > 20 µM | 
CC1(C)[C@H](C(=O)O)N2C(=O)C[C@H]2S1(=O)=O [SULBACTAM] | > 20 µM | > 20 µM | > 20 µM | > 20 µM | > 20 µM |  | 2.5 µM (≈ 0.583 µg/mL) | > 20 µM | > 20 µM | 
